US20030162723A1, “Supplementation of equine feedstuffs” (priority 2000, published 2003)
Entries after “also recorded” stand apart in the source; their conditions may differ.

What was measured:
[1] = parameters: species or system horse; conditions: in vivo
Text: Six stabled Thoroughbred horses (2 mares, 4 geldings; aged 5-9 years), were maintained on hay and mixed feed for a minimum of two weeks before the start of the study. Horses were fed at 8 am and 4 pm. The mixed feed was a mix of cereal sources, fibre sources and protein sources with added vitamins and minerals. The ingredients included, in descending order of inclusion, enriched fibre pellets, rolled oats, soya hull pellets, flaked maise, flaked barley, flaked peas, molgio, full fat soya, vegetable oils, lucerne (alfalfa), calcium carbonate, dicalcium phosphate, salt, lysine, magnesium phosphate and zinc sulphate. Analysis: oil 8%, protein 12%, fibre 11%, ash 7.5%.
Within each part of the study, the order of the feeds was randomised between horses using a Latin Square design. The study comprised four parts:
Part 1: Acute plasma glutamine response to a single feed of molassed sugar beet (mSB), naked oats (nO) and mixed feed (M). […] Total plasma proteins were measured as an indication of plasma volume changes related to the hay or test feeds. […]
Plasma was deproteinised with an equal volume of perchloric acid and neutralised with KHCO3. […] The method was a consolidation of those by Lund (1974), and, Beutler and Michal (1974), creating a one-step enzymic method applied to a microplate reader using only 20 μl of sample. […]

[2] = Plasma ammonia after feeding molassed sugar beet supplemented with L-glutamine (dry-strip analyser); assay type: in vivo, horse; conditions: glutamine supplementation, 60 mg/kg bwt with mSB
Protocol: The mSB, hay and water were provided as in Part 1.
Blood samples were drawn through an indwelling jugular catheter into tubes containing lithium heparin (on ice). In Part 1 samples were taken pre and at 0.5, 1, 1.5, 2, 3, 4, 6 and 8 hours post feed. In Parts 2, 3 and 4 samples were taken pre and at 0.25, 0.5, 0.75, 1, 1.5, 2, 3, 4, 6 and 8 hours. Samples were centrifuged, the plasma harvested, divided into aliquots and stored at −80° C.
Total plasma protein content was estimated using a refractometer (Goldberg Refractometer).

## NC(=O)CC[C@H](N)C(=O)O [L-glutamine]
[1]
  response (peak concentration and AUC) compared with the peptide: greater response
[2]
  effect on plasma ammonia concentration: unaffected; also recorded: Neither did oral ingestion of glutamine have any effect
[2]; listed as G
  effect on plasma ammonia concentration: no significant increase
